Series [1] relates to Escherichia Coli (E. coli) (Gram-negative). Description: Killing curves / antimicrobial activity on E. coli. Format: cell-based. Here is the method:
(§1) In order to investigate the antimicrobial activity of the nanoparticles, a series of biological experiments were designed and carried out on two common bacterial pathogens, Escherichia Coli (E. coli) (Gram-negative) and Staphylococcus Aureus (S. aureus) (Gram-positive). Killing curves were determined in triplicate using starting inocula of 10^6 CFU mL^−1. Fresh, overnight growths of bacteria in TSB or TSB-Glu were diluted as necessary to produce the desired starting inocula in 10 mL of medium. T-SNPs and triclosan were tested in concentration ranges from 0 to 50 μg mL^−1 and 0 to 1 μg mL^−1, respectively. Unloaded SNPs were added at the highest tested concentration (50 μg mL^−1). TTESPC was previously dissolved in dimethyl sulfoxide (DMSO) and added to the media at a concentration of 50 μg mL^−1. Samples (100 μL) were removed from each well every 2 h and diluted appropriately in saline. Colony-forming units were determined by spotting 5 μL samples in triplicate on Luria-Bertani agar plates after 24 h incubation at 37° C. To confirm that the antimicrobial properties of the T-SNPs were mediated by the sole release of triclosan, the triclosan-resistant strain of E. coli, RJH108, was exposed to the highest concentration of T-SNPs tested (50 μg mL^−1). The viability was determined by using the same experimental protocol as described above.
(§2) Despite the similar MICs, a difference in the sensitivity of these strains to the T-SNPs treatment was observed. […] Then, the nanoparticles were centrifuged, filtered and the supernatant was incubated separately with E. coli and S. aureus and their growth was monitored. […]
(§3) The MIC of free triclosan that affected the growth of the two types of bacteria was measured (FIGS. 11A-B). […] As calculated from the elemental analysis, the triclosan constituted only […] of the nanoparticles, meaning that the highest concentration of nanoparticles taken for the experiments, 50 μg mL^−1, encompassed only 0.041 μg mL^1 of covalently bound triclosan. […]

Series [2] relates to Staphylococcus Aureus (S. aureus) (Gram-positive). Description: Killing curves / antimicrobial activity on S. aureus. Format: cell-based. Here is the method: as §1, §2, §3
The conditions of series [3]: cited from earlier work.

Each structure is given as a SMILES string. In brackets after ≈: the same amount, converted by molar mass.

In the case of `CCO[Si](CCCNC(=O)Oc1cc(Cl)ccc1Oc1ccc(Cl)cc1Cl)(OCC)OCC` [TTESPC, 5-chloro-2-(2,4-dichlorophenoxy)phenyl (3-(triethoxysilyl)propyl)carbamate], the “antibacterial activity (control)” value in series [1] (E. coli, 50 μg mL^−1, dissolved in DMSO) is on record as “no antibacterial activity was observed”; in series [2] (S. aureus, 50 μg mL^−1, dissolved in DMSO), “no antibacterial activity was observed”.

For the molecule `Oc1cc(Cl)ccc1Oc1ccc(Cl)cc1Cl` [triclosan, 5-chloro-2-(2,4-dichlorophenoxy)phenol], the “effect on bacterial growth at equal triclosan concentration” value in series [1] (E. coli, 0.041 μg mL^1 triclosan (50 μg mL^−1 nanoparticles)) is on record as “only began to impede the bacterial growth”; in series [2] (S. aureus, 0.041 μg mL^1 triclosan (50 μg mL^−1 nanoparticles)), “only began to impede the bacterial growth”. Also, the MBC in series [1] (Escherichia coli, read-out: minimal bactericidal concentration (MIC)) stood at 0.1 µg/mL (≈ 0.345 µM); in series [2] (Staphylococcus aureus, read-out: minimal bactericidal concentration (MIC)), 0.1 µg/mL (≈ 0.345 µM). Besides, in series [3] (at up to 200° C.), the “chemical stability (time)” value was “up to 2 h”. Besides, in series [3] (unless the pH is alkaline), the “solubility in aqueous solution” value was “fairly insoluble”.

These data come from patent publication US20120183619A1, “TRICLOSAN DERIVATIVES AND NANOPARTICLES COMPRISING SAME” (BAR ILAN UNIVERSITY, priority 2011, published 2012).
